Data reported in US11344498B2, “Compositions and methods for on-demand high-efficiency triggerable anesthesia” (priority 2015, dated 2022).
Where two headings read alike, the source gives them in different places.

Columns and labels:
[1] = system: sciatic nerve; experiment: Motor nerve block, weight-bearing test (TTX, ultrasound, microbubbles); details: rat, in vivo
[2] = system: sciatic nerves and adjacent tissues; details: rat, in vivo
[3] = Protocol: Animals were anesthetized with isoflurane-oxygen and injected with 50 μL of 10 mg/mL sulforhodamine B PBS solution at the sciatic nerve co-injected with or without 50 μL of 50 μg/mL DMED. […] The supernatant was collected and methanol was added at a 1:1 vol ratio. […] The concentration of sulforhodamine B was analyzed by fluorescence (excitation/emission: 560/580 nm).
Liposomal pharmacokinetics studies were performed by co-injecting 200 μL of Lipo-PS-Srho with 200 μL of Lipo or Lipo-DMED at the sciatic nerve. At predetermined time points (30 min, 3 h, 7 h and 10 h), blood was harvested by tail-bleeding.

## N=C1N[C@@H](O)[C@H]2[C@@H]3OC4(O)OC(C(O)[C@@]2(N1)[C@@H]4O)[C@]3(O)CO (stereo partly drawn) [TTX, Tetrodotoxin]
[1]
  median duration of motor nerve block: 0 min
[2]
  inflammation score: 1
  myotoxicity score: 0

## CCN(CC)c1ccc2c(-c3ccc(S(=O)(=O)O)cc3S(=O)(=O)[O-])c3ccc(=[N+](CC)CC)cc-3oc2c1 [Srho, sulforhodamine B]
[3]; free Srho without DMED
  time to peak Srho plasma level: 30 min

## Cc1cccc([C@H](C)c2cnc[nH]2)c1C [DMED, (S)-4-[1-(2,3-Dimethylphenyl)ethyl]-3H-imidazole]
[3]; rat, in vivo
  decrease of peak Srho plasma concentration: 27.5%
  time to peak Srho plasma level: 60 min
